Measured values published in patent US6660837B1, “Modified protein derived from protein kinase N” (Kirin Beer Kabushiki Kaisha, priority 1995, dated 2003).
Values belong to the molecule of their own block, whether it stands above or below them. Ends that are not written are not given here.

How the values were obtained:
[1] = molecular target: T1, purified PKN from rat testis (Rattus norvegicus, UniProt Q63433); experiment: Phosphorylation of native NF by PKN; type: biochemical; conditions: 40 μM arachidonic acid
T1 construct: The purified PKN (1 ng) from rat testis cytosol; from tissue; host or cells: rat testis (cytosol / soluble fraction)
T1 sequence (Q63433 whole entry): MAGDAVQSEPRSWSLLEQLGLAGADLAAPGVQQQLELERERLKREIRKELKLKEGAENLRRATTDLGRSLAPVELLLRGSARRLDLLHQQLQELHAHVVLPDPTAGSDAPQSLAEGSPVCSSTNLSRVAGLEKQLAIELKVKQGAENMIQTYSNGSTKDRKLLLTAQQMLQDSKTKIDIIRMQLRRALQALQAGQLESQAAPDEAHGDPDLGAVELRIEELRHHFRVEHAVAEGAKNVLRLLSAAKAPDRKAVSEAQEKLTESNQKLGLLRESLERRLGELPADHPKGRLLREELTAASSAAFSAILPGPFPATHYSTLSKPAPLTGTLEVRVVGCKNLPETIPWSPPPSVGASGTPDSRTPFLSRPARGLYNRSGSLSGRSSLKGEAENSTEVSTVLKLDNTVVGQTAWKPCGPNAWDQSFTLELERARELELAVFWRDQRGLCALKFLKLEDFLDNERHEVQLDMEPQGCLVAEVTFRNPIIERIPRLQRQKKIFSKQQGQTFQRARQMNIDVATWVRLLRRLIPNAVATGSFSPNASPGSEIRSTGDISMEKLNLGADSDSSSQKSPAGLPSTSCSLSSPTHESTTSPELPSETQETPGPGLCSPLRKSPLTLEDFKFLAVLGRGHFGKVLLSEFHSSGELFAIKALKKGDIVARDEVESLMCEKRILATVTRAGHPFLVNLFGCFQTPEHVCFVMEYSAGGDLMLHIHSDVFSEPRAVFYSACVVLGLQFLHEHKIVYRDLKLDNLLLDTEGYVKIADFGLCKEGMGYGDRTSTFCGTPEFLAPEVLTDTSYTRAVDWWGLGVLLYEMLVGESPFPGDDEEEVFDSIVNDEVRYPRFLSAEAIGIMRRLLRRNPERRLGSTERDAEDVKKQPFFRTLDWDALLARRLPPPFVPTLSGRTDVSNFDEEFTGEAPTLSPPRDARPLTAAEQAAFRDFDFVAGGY
Experimental: Native NFs were prepared from bovine spinal cords according to a method described in Hisanaga, S. & Hirokawa, N., J. Mol. Biol. 202, 297-305 (1988). Kinase assay was carried out according to the following method.
Soluble cytosolic extract of spinal cord or purified NF proteins were boiled for 5 min to destroy endogenous protein kinase activity prior to their use as phosphate acceptors. The phosphorylation of NF preparations was carried out at 30° C. in an assay mixture containing 20 mM Tris/HCl at pH 7.5, 8 mM MgCl2, 100 μM ATP, 185 kBq of [γ-^32P]ATP, each subunit of NF, 20 ng/ml of purified PKN from rat testis, and with/without 40 μM arachidonic acid as indicated in each experiment. Reactions were terminated after various times by the addition of an equal volume of Laemli's sample buffer, and separation was performed on 7% SDS-PAGE. The gels were dried under vacuum and exposure to BAS1000 bio-imaging analyzer. Dephosphorylation of NF proteins was conducted with calf intestine alkaline phosphatase according to a method described in Carden, M. J. et al., J. Biol. Chem. 260, 9805-9817 (1985) and terminated after boiling for 5 min.

[2] = molecular target: T2, PKN purified from rat testis (Rattus norvegicus, UniProt Q63433); experiment: Phosphorylation of α-actinin and actin-cytoskeletal proteins by PKN; type: biochemical; conditions: presence of 40 μM arachidonic acid
T2 construct: The purified PKN (1 ng) from rat testis cytosol; from tissue; host or cells: rat testis (cytosol / soluble fraction)
T2 sequence (Q63433 whole entry): as above
Experimental: α-Actinin used in the experiment was purified from bovine aorta by the method of Feramisco et al. (Feramisco, J. R. & Burridge, K. J. Biol. Chem, 255, 1194-1199 (1980)). The phosphorylation by PKN was carried out at 30° C. in an assay mixture containing 20 mM Tris/HCl at pH 7.5, 4 mM MgCl2, 100 μM ATP, 185 kBq of [γ-^32p] ATP, substrates for phosphorylation (phosphate acceptors), 20 ng/ml of purified PKN from rat testis (Abe, M., et al., J. Biochem. Tokyo 107, 507-509 (1990)) in the presence or absence of 40 μM arachidonic acid as indicated in each experiment. Partial purified protein was boiled for 3 min to destroy endogenous kinase activity before use as the substrate for phosphorylation. After incubation for 5 min, the reaction was terminated by the addition of an equal volume of Laemmli's sample buffer (Laemmli, U. K. Nature […], 680-685 (1970)), and separated on SDS-PAGE. The gels were dried under vacuum and the phosphorylation was visualized and quantitated by an imaging analyzer (FUJI BAS1000). When the δPKC peptide (Mukai, H., et al. Biochem, Biophys. Res. Commun. 204, 348-356 (1994)) was used as the substrate for phosphorylation, reactions were terminated by spotting a mixture onto a Whatman P81 paper and submerging it in 75 mM phosphate, and followed by three times of 10 min washes. Incorporation of ^32p into the peptide was assessed by scintillation counting. […]

Rat-1 cells = experiment: Subcellular distribution of PKN after sodium arsenite (immunofluorescence); type: cell-based; conditions: 50 μM, 37° C. for 2 hr
Experimental: (§1) Cells grown on coverslips were washed twice with phosphate-buffered saline (PBS), fixed for 1 hr at 4° C. in 4% paraformaldehyde, rinsed with PBS, and then blocked for 1 hr in PBS-T (PBS containing 0.05% Triton X-100) containing 5% normal goat serum. After washing with PBS, cells were incubated overnight at 4° C. with each antiserum which has been diluted with PBS to an antiserum concentration of about 10 μg/ml. Coverslips were then rinsed with PBS-T, and incubated with fluorescein isothiocyanate isomer I (FITC)-conjugated goat anti-rabbit IgG (Medical and biological laboratories, Co. Ltd.) for 60 min. Coverslips were rinsed with PBS-T followed by PBS, mounted with glycerol containing 0.1% 1, 4-diazabicyclo (2, 2, 2) octane (DABCO), and viewed on a Zeiss laser scanning microscope.
An experiment was made in order to examine whether the subcellular distribution of PKN is influenced also by chemical shock. It is known that toxic compounds and toxic heavy metals also induce heat shock proteins and the stress responses in experimental systems (Maytin, E. V. & Young, D. A., J. Biol. Chem. 258, 12718-12722 (1983)). It is also known that cellular response similar to the stress induced by the heat shock is created also by treatment with sodium arsenite (Welch, W. J. & Suhan, J. P., J. Cell Biol. 103, 2035-2052 (1986)). […]

PKN = molecular target: T3, PKN (Rattus norvegicus, UniProt Q63433); experiment: Inhibition of protein kinase activity of PKN with synthetic peptides (δPKC peptide substrate); type: biochemical; conditions: δPKC peptide at Km concentration (10 μM)
T3 construct: The purified PKN (1 ng) from rat testis cytosol; from tissue; host or cells: rat testis (cytosol / soluble fraction)
T3 sequence (Q63433 whole entry): as above
Experimental: Kinase assay was carried out by the following method. The purified PKN (1 ng) from rat testis cytosol (Kitagawa, M. et al., Biochem. J. 310, 657-664. (1995)) was incubated for 5 min at 30° C. in a reaction mixture (final volume 25 μl) containing 50 mM Tris/HCl (pH 7.5), 8 mM Mgcl2, 20 μM ATP, 18.5 kBq of [γ-^32p] ATP, 40 μM arachidonic acid, phosphate acceptors and inhibitors as indicated in each experiment. Reactions were started by the addition of the enzyme source and terminated by spotting them onto Whatman P81 papers immersed in 75 mM phosphate. Incorporation of ^32P into phosphate acceptors was assessed by liquid scintillation counting. The protein kinase assay was carried out in the same manner as in Example 13, except that PKN was measured by using 6PKC peptide as a substrate and PKN (39-53) peptide (FIG. 22; black circle) or PKN (54-73) (FIG. 22: white circle) as an inhibitor. The concentration of δPKC peptide was Km concentration (10 μM). The protein kinase reaction was carried out in the presence of PKN (39-53) peptide or PKN (54-73) peptide with various concentrations.

[3] = molecular target: T4, GST-RhoGAP-stimulated GTPase activity of GST-RhoA (Homo sapiens, UniProt P61586); experiment: GAP-stimulated GTPase activity of RhoA; type: biochemical; conditions: 50 nM GST-RhoGAP, 2 min 25° C., concentration-dependent
T4 construct: made in house
T4 sequence (P61586 whole entry): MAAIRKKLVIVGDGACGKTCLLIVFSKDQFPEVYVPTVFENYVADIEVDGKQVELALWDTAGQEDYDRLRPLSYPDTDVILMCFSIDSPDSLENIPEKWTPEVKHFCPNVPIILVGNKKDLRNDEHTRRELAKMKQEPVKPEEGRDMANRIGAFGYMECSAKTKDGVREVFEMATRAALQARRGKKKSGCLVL
Experimental: The GAP-stimulated GTPase activity of RhoA was assayed by measuring the decreased radioactivity of [γ-^32p] GTP.GST-RhoA for 2 min at 25° C. in the presence of 50 nM of p122 Rho GAP fused to GST (GST-RhoGAP) and MBP-PKN with various concentrations in 100 μl of reaction mixture (20 mM Tris/HCl at pH 7.5, 10 mM EDTA, 1 mM DTT, 10 mM MgCl2, 1 mM GTP, 0.075% CHAPS, 0.25 mM L-α-dimyristoylphosphatidylcholine, 100 nM [γ-^32p] GTP bound form of GST-RhoA) (Homma, Y. & Emori, Y., EMBO J. 14, 286-291 (1995).

PKN autophosphorylation = experiment: Kinase activity (autophosphorylation) of immunoprecipitated PKN-PK^−; type: biochemical, human; conditions: immunoprecipitate from PK^−/neo#5 cells
Experimental: To examine whether PKN-PK^− has kinase activity, the kinase activity of PKN-PK^−, which has been immunoprecipitated by cells, was assayed. Specifically, the assay was carried out according to the following procedure.
The experiment on immunoprecipitation was carried out at 0 to 4° C. The wild type NIH 3T3 cells and PK^−/neo#5 cells were lysed in 0.5 ml of buffer B (20 mM Tris/HCl at pH 7.5, 1% Nonidet P-40, 137 mM NaCl, 10% glycerol, 1 mM PMSF, 20 μg/ml aprotinin, 10 μg/ml leupeptin, 2.5 mM sodium fluoride, 0.25 mM sodium vanadate) for 1 hr. Insoluble materials were removed by centrifugation at 15,000×g for 10 min, and the supernatants were incubated with 1 μl of 10-fold diluted antiserum αN2 (Example 19) for 2 hr. After addition of 40 μl of 50% protein A Sepharose, the mixtures were further incubated for 1 hr. […] Each immunoprecipitate was incubated for 5 min at 30° C. with a 25-μl mixture (20 mM Tris/HCl at pH 7.5, 4 mM MgCl2, 40 μM ATP, 185 kBq of [γ-^32P] ATP without exogenous substrate. After addition of 5 μl of 6×Laemmli sample buffer (Laemmli, U. K. Nature 227, 680-685 (1970)) and boiling, a 20-μl aliquot of the mixture was subjected to 7% SDS-PAGE. The phosphorylation was visualized and quantitated by an imaging analyzer (Fuji BAS1000).

[4] = tested on: PK^−/neo#5 cells (NIH 3T3); experiment: Heat shock induced nuclear translocation of PKN in PK^−/neo#5 cells; type: cell-based
Experimental: as §1
At the outset, NIH 3T3 cells which stably overexpresses PKN-PK^− were constructed by the following procedure. A vector phPKNH4-PK^− was constructed by conversion of the lysine at the potential ATP-binding site to an arginine by in vitro site-directed mutagenesis (Mukai, H. & Ono, Y., Biochem. Biophys. Res. Commun. 199, 897-904 (1994)). […]

purified PKN = molecular target: T5, purified PKN (Rattus norvegicus, UniProt Q63433); experiment: Kinetic assays of PKN inhibition by PKN (39-53) peptide; type: biochemical
T5 construct: The purified PKN (1 ng) from rat testis cytosol; from tissue; host or cells: rat testis (cytosol / soluble fraction)
T5 sequence (Q63433 whole entry): as the sequence (Q63433 whole entry) above
Experimental: In order to confirm the function of PKN (39-53) as a pseudosubstrate for PKN, kinetic assays were performed with purified PKN, a fixed ATP concentration of 100 μM, and various concentrations of δPKC peptide (10-80 μM). The protein kinase reaction of PKN was performed in the same manner as in Examples 13 and 14. The results, performed in the presence of 40-80 μM PKN (39-53) peptide, are shown in double-reciprocal plots (FIG. 23 (A)). The inhibition was competitive-noncompetitive and gave a linear secondary plot of Km/Vmax (a concentration required to give a half-maximal velocity/maximal velocity) versus inhibitor peptide concentrations (FIG. 23 (B)).

[5] = molecular target: T6, catalytic subunit of bovine heart PKA (Bos taurus, UniProt P00517); experiment: Protein kinase assay with PKA (Kemptide substrate), specificity of inhibitor peptide; type: biochemical; conditions: Kemptide at Km concentration (16 μM), no arachidonic acid; read-out: IC50 against PKA
T6 construct: The catalytic subunit of bovine heart PKA used in the experiment was purified; from tissue; host or cells: bovine heart
Experimental: In order to judge the specificity of the activity of the inhibitor peptide, a protein kinase assay was carried out using PKA as an enzyme specimen. The catalytic subunit of bovine heart PKA used in the experiment was purified according to a method described in Bechtel, P. J. et al., J. Biol. Chem. 252, 2691-2697 (1977). The protein kinase activity of PKA was measured by using Kemptide (Kemp, B. E. et al., J. Biol. Chem. 252, 4888-4894 (1977) as a substrate under the same conditions as those used in Example 13, except that arachidonic acid was not used. The concentration of Kemptide was the Km concentration (16 μM), and measurement was made using PKN (39-53) peptide as an inhibitor (FIG. 22; white square). The kinase activity was determined in the same manner as in Example 13.

enzyme (kinase) activity of the mutant (PKN autophosphorylation): inactivated
Molecule: PKN-PK^−: single point mutation of human PKN in the kinase domain (K644R), protein kinase-negative mutant
nuclear translocation of the mutant protein on heat shock ([4]; 42° C. or 44° C. for 90 min): does not translocate to the nucleus
effect of overexpression on translocation of endogenous PKN from cytoplasm to nucleus ([4]; heat shock): inhibits the translocation

type of inhibition versus δPKC peptide substrate (purified PKN; 100 μM ATP): competitive-noncompetitive
type of inhibition with varying ATP concentration (purified PKN; data not shown): uncompetitive
IC50 [5]: ≥ 1000 µM
Molecule: RERLRREIRKELKLK [PKN (39-53) peptide]

The next lines start with the molecule.

Molecule: CCCCC/C=C\C/C=C\C/C=C\C/C=C\CCCC(=O)O [arachidonic acid]
initial velocity of phosphorylation of each NF subunit by PKN, presence versus absence [1]: 5-10 times
stimulation of phosphorylation of G-actin by PKN [2]: up to 2 fold
stimulation of phosphorylation of caldesmon by PKN [2]: at least 6 fold

Molecule: O=[As]O [sodium arsenite]
effect on subcellular distribution of PKN (Rat-1 cells): translocation of PKN to the nucleus

Molecule: EGAENLRRATTDLGRSLGPV [PKN (54-73) peptide]
inhibitory activity against PKN (PKN): little or no inhibitory activity

Molecule: MBP-PKN: N-terminal region of PKN (amino acid sequence 7-155 in SEQ ID NO: 1) expressed as MBP fusion protein
effect on GST-RhoGAP-stimulated GTPase activity of GST-RhoA [3]: inhibited
